Source: patent US11179380B2, “Compounds and compositions for use in treating psoriasis” (SOLVOTRIN THERAPEUTICS LTD, priority 2017, dated 2021)
Where two headings read alike, the source gives them in different places.

What was measured:
[1] = Log P from reversed-phase TLC Rf/Rm values (MeOH in water mobile phases); details: for Rm: calculated from Rf
Description: The partition coefficient (P) is used to describe the lipophilicity of a drug. It is defined as the ratio of equilibrium concentrations of a drug in an organic phase (Corg) and an aqueous phase (Caq).
Most commonly the organic solvent is n-octanol and the other solvent is water. Hydrophobic molecules will have a high P value while hydrophilic molecules will have a low P value.
Rm values were calculated from Rf values that were obtained at three different mobile phase compositions (40, 50 and 60% MeOH in water).
The Rm value was calculated using the following equation: […]
The theoretical Rm value at 0% organic modifier was calculated by extrapolating from the calibration curves that were obtained. These values were then correlated to the literature log P of two reference compounds (methyl benzoate and paracetamol).

[2] = test system: IMQ on mouse skin; details: topical; cited from earlier work
[3] = test system: Aldara-treated mice; test: Aldara-induced model of psoriasis in mice, clinical scoring (PASI); type: in vivo, mice (C57BL/6J); details: for PASI scores: relative to Vehicle; for inflammation in the mouse psoriasis model: summary statement in RESULTS
Description: Specific Pathogen-Free female C57BL/6J strain mice, 6-8 weeks of age, were obtained from a commercial supplier and bred in-house (JAX, Charles River). Mice were fed irradiated diet and housed in individually ventilated cages (Tecniplast, UK) under positive pressure. All animal experiments were performed in compliance with the Health Products Regulatory Authority and approved by the Trinity College Dublin's BioResources ethical review board.
The Aldara-induced model of psoriasis was used (Flutter and Nestle, 2013; Morwietz, 2015; Russell et al., 2013; van der Fits et al., 2009). The dorsal skin of mice was shaved and depilated on day −1. Mice were that were in the telogen phase (resting phase) of the hair cycle were chosen for experiments. Mice with visual skin damage from shaving were excluded. Mice were then randomly divided into groups for treatment with topical application of vehicle (white petroleum jelly) or Solvotrin test compounds, prepared in white petroleum jelly. On day 0, mice were scored for disease signs, as per below. After which 62.5 mg of Aldara™ cream (5% Imiquimod; MEDA Pharmaceuticals) was applied to a defined area of the shaved dorsal skin surface. Thirty minutes after the Aldara application, test compounds or vehicle was applied to the dorsal flank, to cover the entire Aldara-challenged surface, with an even layer of the white petroleum. This process was repeated for a further 5 days. Mice were scored daily. On day 6 the mice were euthanized for tissue collection.
The skin of mice was scored for signs of psoriasis-like inflammation for a total of 7 days, (i.e. days 0-6), as described (van der Fits et al., 2009). Mice were scored according to 3 parameters: erythema (the redness of skin); thickening of the skin; and scaling (dryness and flaking of the skin). For each parameter, the mice were scored on a scale from 0-4. Mice with no pathology were scored 0. Mice with mild pathology scored 1. […] The total, or Psoriasis Area and Severity Index (PASI), score was the cumulative score of all three parameters. Therefore for each mouse studied the PASI score can range between 0 to 12.
Power calculations on data from previous studies have shown that a sample size of at least 6 will detect significant difference (P<0.05) in PASI scores between groups. ANOVA and Dunnett Multiple Comparison Test determined statistical differences between multiple groups. Two tailed Student's t-test was used to compare statistical differences between two groups.
Unless otherwise specified percentage concentration of a test compound in a composition refers to the weight percent of said test compound in the composition. For example, application of 2% compound X, means application of a composition comprising 2 weight percent of compound X.

[4] = literature log P of reference compounds; cited from earlier work
[5] = test system: normal healthy skin; test: Assessment of erythema and itchiness after topical application to shaved forearm; type: in vivo
Description: Test article dispersed in petroleum jelly was applied to a 2×2 cm patch of shaved forearm (n=3). At specified time intervals the degree of erythema was recorded by blinded observers on a scale of 1-4 (n=3). Itchiness was observed by scratching behaviour also by blinded observers on a scale of 1-4. The time course of erythema resolution was recorded at 30 minute intervals.

[6] = in petroleum jelly (concentration not given), vs Vehicle
[7] = theoretical Rm at 0% organic modifier
[8] = 3% in petroleum jelly, statistically significant (P<0.05) only on day 3
[9] = 3% in petroleum jelly, vs Vehicle

| SMILES | Extrapolated Rm (y value) [1] | Log P (calculated) [1] | Rf ([1]; 40% MeOH in water) | Rm ([1]; 40% MeOH in water) | Rf ([1]; 50% MeOH in water) | Rm ([1]; 50% MeOH in water) | Rf ([1]; 60% MeOH in water) | Rm ([1]; 60% MeOH in water) | further results |
| --- | --- | --- | --- | --- | --- | --- | --- | --- | --- |
| CC(=O)OC1COC2C(OC(=O)c3cccnc3)COC12 (centres unmarked) [Isosorbide-2-Acetate-5-nicotinate, Isosorbide 2-acetate-5-nicotinate] | 1.2763 | 1.3369 | 0.2860 | 0.3973 | 0.3730 | 0.2256 | 0.5200 | −0.0348 |  |
| O=C(OC1COC2C(OC(=O)c3cccnc3)COC12)c1ccccc1 (centres unmarked) [Isosorbide-2-Benzoate-5-nicotinate, Isosorbide 2-benzoate-5-nicotinate] | 3.5292 | 4.7555 | 0.0260 | 1.5736 | 0.0870 | 1.0210 | 0.2060 | 0.5860 |  |
| C[C@H]1C[C@H]2[C@@H]3CCC4=CC(=O)C=C[C@]4(C)[C@@]3(F)[C@@H](O)C[C@]2(C)[C@@]1(O)C(=O)CCl [clobetesol] |  |  |  |  |  |  |  |  | thickness reduction [2]: best |
| O=C(O[C@@H]1CO[C@H]2[C@@H]1OC[C@@H]2OC(=O)c1ccccc1O)c1cccnc1 [ST0702Sal, Isosorbide-2-salicylate-5-nicotinate] |  |  |  |  |  |  |  |  | PASI scores ([3]; in petroleum jelly (concentration not given), days 4, 5 and 6): significantly reduced; Aldara-induced scaling [3, 6]: significantly (P<0.001) reduced; erythema [3, 6]: not altered; skin thickness [3, 6]: not altered |
| CC(=O)Nc1ccc(O)cc1 [Paracetamol, paracetamol, reference compound] |  |  | 0.5460 | −0.0801 | 0.6270 | −0.2256 | 0.7460 | −0.4679 | Extrapolated Rm (y value) [1, 7]: 0.7116; Log P (ref) [4]: 0.48 (2) |
| CCCCC(=O)O[C@H]1CO[C@H]2[C@@H]1OC[C@H]2OC(=O)c1cccnc1 [Isosorbide-2-Valeroate-5-nicotinate, Isosorbide 2-valeroate-5-nicotinate] | 2.9143 | 3.8225 | 0.0530 | 1.2521 | 0.1200 | 0.8653 | 0.2730 | 0.4254 |  |
| CC(=O)Oc1ccccc1C(=O)O[C@H]1CO[C@H]2[C@@H]1OC[C@H]2OC(=O)c1ccncc1 [ST0703, Isosorbide-2-aspirinate-5-isonicotinate] |  |  |  |  |  |  |  |  | PASI scores [3, 8]: reduced the PASI scores; erythema [3, 9]: reduced levels of elevated skin thickness and erythema; skin thickness [3, 9]: reduced levels of elevated skin thickness; inflammation in the mouse psoriasis model [3]: did not inhibit inflammation |
| COC(=O)c1ccccc1 [Methyl Benzoate, methyl benzoate, reference compound] |  | 2.2 | 0.1460 | 0.7671 | 0.1867 | 0.6391 | 0.3600 | 0.2499 | Extrapolated Rm (y value) [1, 7]: 1.845; Log P (ref) [4]: 2.2 (1) |
| O=C(O)c1ccccc1O [salicylic acid] |  |  |  |  |  |  |  |  | cumulative irritancy score (irritancy/erythema) ([5]; 2%): did cause erythema |
| O=C(O)c1cccnc1 [niacin] |  |  |  |  |  |  |  |  | temporal erythema response ([5]; 5% in petroleum jelly): persisted in the niacin case up to six hours; skin irritation ([5]; in vivo): causes skin irritation |
| CCC(=O)OC1COC2C(OC(=O)c3cccnc3)COC12 (centres unmarked) [Isosorbide-2-Propionate-5-nicotinate, Isosorbide 2-propionate-5-nicotinate] | 1.9553 | 2.367 | 0.1600 | 0.7202 | 0.2730 | 0.4254 | 0.4400 | 0.1047 |  |
| CCCC(=O)O[C@H]1CO[C@H]2[C@@H]1OC[C@H]2OC(=O)c1cccnc1 [Isosorbide-2-Butyrate-5-nicotinate, Isosorbide 2-butyrate-5-nicotinate] | 2.2483 | 2.8118 | 0.1060 | 0.9260 | 0.2067 | 0.5841 | 0.3530 | 0.2631 |  |
| CC(=O)Oc1ccccc1C(=O)OC1COC2C(OC(=O)c3ccccc3O)COC12 (centres unmarked) [ST0701, Isosorbide-2-aspirinate-5-salicylate] |  |  |  |  |  |  |  |  | PASI scores [3, 8]: reduced the PASI scores; erythema [3, 9]: reduced levels of elevated skin thickness and erythema; skin thickness [3, 9]: reduced levels of elevated skin thickness; inflammation in the mouse psoriasis model [3]: did not inhibit inflammation |
| O=[N+]([O-])O[C@@H]1CO[C@H]2[C@@H]1OC[C@@H]2O [ISMN, isosorbide mononitrate, reference compound] |  |  | 0.6060 | −0.1870 | 0.6530 | −0.2746 | 0.7000 | −0.3680 | Log P (calculated) ([1]; from extrapolated Rm correlated to literature log P of methyl benzoate and paracetamol): −0.333; Extrapolated Rm (y value) [1, 7]: 0.176 |
| CCOC(=O)c1ccc(C#Cc2ccc3c(c2)C(C)(C)CCS3)nc1 [tazarotene] |  |  |  |  |  |  |  |  | IMQ-induced increased thickness of epidermal and subcutaneous tissue [2]: exacerbated; thickness reduction [2]: ineffective |
| C=C1/C(=C\C=C2/CCC[C@]3(C)[C@@H]([C@H](C)/C=C/[C@@H](O)C4CC4)CC[C@@H]23)C[C@@H](O)C[C@@H]1O [calcipotriol] |  |  |  |  |  |  |  |  | cumulative irritancy score (irritancy/erythema) ([5]; 0.005%): did cause erythema; IMQ-induced increased thickness of epidermal and subcutaneous tissue [2]: exacerbated; thickness reduction [2]: ineffective |
